From patent US20250099407A1, “2-AMINO BENZOPHENONE DERIVATIVES FOR TARGETED FERROPTOSIS INDUCTION IN CANCER THERAPY” (INDIAN INSTITUTE OF TECHNOLOGY KANPUR, priority 2023, published 2025)

Tests used:
Huh-7 cells [1] = experiment: Intracellular ROS, H2-DCFDA oxidation assay in Huh-7 cells; type: cell-based; settings: Huh-7, 37° C., 30 min; IITK3001 and IITK3002 20 μM, H2O2 100 μM
Experimental: We used fluorescence imaging-based oxidation of H2-DCFDA by ROS for assessing intracellular oxidative stress. Huh-7 cells were treated at 37° C. for 30 min with IITK3001 and IITK3002 (20 μM), H2O2 (100 μM), ^tertBuOOH (20 μM), NAC (0.5 mM) and 0.1% DMSO as control. Each experiment was conducted in more than two biological replicates with three technical replicates.
b. Effect of Thiols and Ferroptosis Modulators on the Hit Molecules' Antiproliferative Potency: Ferroptosis is directly controlled by the intracellular thiol concentrations in the form of cysteine and glutathione. Several oxidative mechanisms are well-wired in ferroptotic cell death and we set out to investigate the precise molecular mechanism of our lead molecules. Both cysteine and glutathione (GSH) are the enriched thiol-containing small molecule antioxidant system that are essential regulators of redox modulation in cells including ferroptosis. Further, the enzyme glutathione peroxidase 4 (GPX4) is well characterized to specifically quench the lipid peroxide equivalents in cells through the conversion of […] in cells thereby restoring the reduced environment in cells. Therefore, first, we assessed the ability of N-acetylcysteine (NAC) and GSH to suppress our lead molecules antiproliferative activity (FIG. 4a, b). We found a drastic reduction in the molecules' potency with IITK3001 (>1000-fold reduction) and IITK3002 (>500-fold reduction) (FIG. 14a, b). Supporting that, the addition of DL-Buthionine sulfoximine (BSO), an inhibitor of y-glutamylcysteine synthetase (glutathione biosynthesis) combination with our lead molecules potentiated the overall inhibitory capacity (FIG. 14a, b). […] Finally, we assessed the effect of Ferrostain-1 (Fer-1) and Liproxstatin-1 (Lip-1), antioxidants that function by trapping reactive radicals in cells, particularly lipid-peroxide radicals, and preventing the accumulation of lipid peroxides in cells. […] The accumulation of lipid peroxides and overall ROS was also detected using a fluorescence-based H2DCF-DA assay as depicted in FIG. 15. […]

PC3 = experiment: Cell viability, CellTiter-Glo assay, PC3; type: cell-based; settings: Homo sapiens, PC-3, PC3, cell viability
Experimental: (§1) The viability of screened cancer cells was recorded using a luminescence-based CellTiter-Glo® assay for the ATP quantification. The screening concentration of the molecule ranged from 100/10 μM to 45/4.5 nM with an 8-point-3-fold dilution series in DMEM media (>0.1% DMSO as control). Each experiment was conducted in more than two biological replicates with three technical replicates. The error bar is a representation of standard deviation among the technical replicates.
as §1, with “IITK3002” for “the molecule”, “10” for “100/10”, “4.5” for “45/4.5”
(§2) a. […] In parallel, we have also synthesized the bromoacetamide (IITK3002) version of the lead molecules which is slightly more reactive with thiol nucleophiles when compared to chlorooacetamide warheads as depicted in FIG. 13. […] In addition, we also evaluated the molecules' antiproliferative potency against a panel of twelve different cancer phenotypes. The set of cancer cell lines included liver, breast, colon, myeloma, bone, blood, skin, brain and prostate lineages (FIG. 2, 3, Table 1).

U2OS = experiment: Cell viability, CellTiter-Glo assay, U2OS; type: cell-based; settings: Homo sapiens
Experimental: as §1
as §1, with “IITK3002” for “the molecule”, “10” for “100/10”, “4.5” for “45/4.5”
as §2

Huh-7 cells [2] = experiment: Combination cell viability experiments with thiols, ferroptosis modulators and cell death inhibitors in Huh-7 cells; type: cell-based; settings: combination with GSH, NAC, BSO, Fer-1, deferoxamine, RSL3, FIN56, Erastin, QVD-OPh, necrostatin-1; Huh-7 and 4T1
Experimental: FIG. 14 depicts a combination experiment indicates the involvement of thiol modulation by IITK3001/IITK3002 on the viability of Huh-7 and 4T1 cells, in accordance with an embodiment of the present invention. The viability of screened cancer cells was recorded using a luminescence-based CellTiter-Glo® assay for the ATP quantification. The screening concentration of (a) IITK3001 and (b) IITK3002 ranged from 10 uM to 4.5 nM with an 8-point-3-fold dilution series in DMEM medium (>0.1% DMSO as control). For combination experiments, 500 μM of NAC or glutathione and 25 μM of BSO were used. Each experiment was conducted in more than two biological replicates with three technical replicates. The error bar is a representation of standard deviation among the technical replicates.
(§3) FIG. 16 depicts ferroptosis induction as a cell death mechanism is established for IITK3001 using combination experiments with ferroptosis inducers and inhibitors, in accordance with an embodiment of the present invention. The screening concentration of (a) IITK3001 and (b) IITK3002 ranged from 10 μM to 4.5 nM with an 8-point-3-fold dilution series in DMEM medium (>0.1% DMSO as control). For combination experiments, Ferrostain-1 (10 μM),Deferoxamine (3 μM), RSL3 (10 nM), FIN56 (30 nM), glutamine (0.5 mM), glutamic acid (0.5 mM), Erastin (0.5 μM) were used. Each experiment was conducted in more than two biological replicates with three technical replicates. The error bar is a representation of standard deviation among the technical replicates.
as §3, with “18” for “16”, “IITK3002” for “IITK3001”, “of” for “of (a) IITK3001 and (b)”, “μM), Deferoxamine” for “μM),Deferoxamine”
FIG. 20 depicts combining apoptosis and necroptosis inhibitors ruled out the possibility of respective cell death mechanisms upon treatment with IITK3001 or IITK3002 in Huh-7 and 4T1 cells, in accordance with an embodiment of the present invention. The screening concentration of IITK3001/IITK3002 ranged from 10 μM to 4.5 nM with an 8-point-3-fold dilution series in DMEM medium (>0.1% DMSO as control). For combination experiments, QVD-OPh and Necrsotatin-1 (10 μM) were used. Each experiment was conducted in more than two biological replicates with three technical replicates. The error bar is a representation of standard deviation among the technical replicates.
FIG. 22 depicts ferroptosis induction was established for IITK3003 using combination experiments in Huh-7 cells, in accordance with an embodiment of the present invention. The screening concentration of IITK3002 ranged from 10 uM to 4.5 nM with an 8-point-3-fold dilution series in DMEM medium (>0.1% DMSO as control). For combination experiments, Ferrostain-1 ([…]), Deferoxamine (3 μM), RSL3 (10 nM), FIN56 (30 nM), glutamine (0.5 mM), glutamic acid (0.5 mM), Erastin (0.5 μM) were used. Each experiment was conducted in more than two biological replicates with three technical replicates. The error bar is a representation of standard deviation among the technical replicates.
FIG. 24 depicts ferroptosis induction was established for IITK3004 using combination experiments in Huh-7 cells, in accordance with an embodiment of the present invention. The screening concentration of the molecules (a) IITK3001 and (b) IITK3002 ranged from 10 μM to 4.5 nM with a 8-point-3-fold dilution series. […]

Huh-7 cells [3] = experiment: Cell viability, luminescence-based CellTiter-Glo assay, Huh-7 cells; settings: Homo sapiens, Huh-7, Huh-7 cells, cell viability; read-out: EC50 Huh-7
Experimental: The viability of Huh-7 cells was recorded using a luminescence-based CellTiter-Glo® assay. The screening concentration of the molecules were 10 μM with or without Fer-1 (10 μM) in DMEM media (>0.1% DMSO as control).
Ferroptosis is a unique form of cell death mechanism mediated by the accumulation of lipid peroxides in cells which is distinct from healthy cells' apoptosis, a programmed […] route. We aimed to exploit the induction of ferroptosis in cancer cells using covalent small molecules as a potential strategy for cancer therapeutic development. […] We used various amide bond formation chemistry to construct the library members and these molecules are well characterized by various spectroscopic and mass spectrometry techniques. Once confirmed, these thiol reactive library members were screened in a cancer cell viability assay in combination with ferrostatin-1 (Fer-1), a ferroptosis inhibitor as depicted in FIG. 11. […] We have screened a total of ˜50 electrophilic small molecules to prevent the proliferation of hepatocellular carcinoma (Huh-7 cells) in combination with and without Fer-1. From our initial screening, we identified haloacetamides of 2-aminoalkylbenzophenone as potential ferroptosis inducers as depicted in FIG. 11.
as §1
The viability of screened cancer cells was recorded using a luminescence-based CellTiter-Glo® assay for the ATP quantification. The screening concentration of IITK3002 ranged from 10 μM to 4.5 nM with an 8-point-3-fold dilution series in DMEM media (>0.1% DMSO as control). Each experiment was conducted in more than two biological replicates with three technical replicates. The error bar is a representation of standard deviation among the technical replicates. […]
a. Electrophilic Warhead Optimization: Once we identified 2-benzoylphenyl-a-haloacetamide as the lead scaffold, we have investigated the structure-activity-relationship analysis to precisely capture the effect of various chemical handles of the scaffold and use the knowledge to improve the overall potency and selectivity of this molecule to prevent cancer cell proliferation. First, we changed the haloacetamide electrophilic unit with various other electrophiles with a characteristic high, moderate, and weak reactivity with thiols when compared to chloroacetamide. Therefore, we opted vinylsulfonamide (highly reactivity), acrylamide (moderate reactivity), and phenoxyacetamides (weak reactivity warheads) for incorporation in the place of haloacetamide warhead of the top hit scaffold. Once synthesized, these molecules were evaluated to assess their antiproliferative potency against Huh-7 cells (Table 2). As expected, the introduction of weakly reactive electrophilic warheads, phenoxyactamides, completely lost the activity against Huh-7 cells. […] Perhaps, the secondary interactions of the electrophilic warhead with the target proteins might play additional roles. Therefore, we shifted our focus to optimize the rest of the core scaffold for further SAR analysis. b. Role of N-Substitutions: Next, we synthesized the NH-derivative of haloacetamides to capture the importance of N-alkylation on the activity of our hit molecule. […] Perhaps the hydrogen bonding induced planarity around the warhead influences the molecules' weakened potency. Conversely, the additional flexibility in the lead molecule (tertiary amide) might contribute to the strong antiproliferative activity of the hit molecule. […]

22Rv1 = experiment: Cell viability, CellTiter-Glo assay, 22Rv1; type: cell-based; settings: Homo sapiens, 22Rv1, 22Rv1, cell viability
Experimental: as §1
The viability of screened cancer cells was recorded using a luminescence-based CellTiter-Glo® assay for the ATP quantification. The screening concentration of IITK3002 ranged from 10 μM to 4.5 nM with an 8-point-3-fold dilution series in DMEM media (>0.1% DMSO as control). Each experiment was conducted in more than two biological replicates with three technical replicates. The error bar is a representation of standard deviation among the technical replicates.
as §2

In the case of OO [Hydrogen peroxide, reference compound], the “intracellular ROS, H2DCF-DA fluorescence intensity” value (Huh-7 cells [1]) is reported as “drastic enhancement in the fluorescence intensity”.
For C#CCN(C(=O)CBr)c1ccccc1C(=O)c1ccccc1 [IITK3004, N-(2-benzoylphenyl)-2-bromo-N-(prop-2-yn-1-yl)acetamide], the EC50 (PC3) was 130 nM, the EC50 (U2OS) was 370 nM and the “cell death mechanism from combination experiments” value (Huh-7 cells [2]) was “exceptionally selective ferroptosis inducers”. For the same compound, the EC50 (Huh-7 cells [3]) was 4.64 nM and the EC50 (22Rv1) was 120 nM.
